Source: patent US7750017B2, “Heterocycles” (Bayer Schering Pharma Aktiengesellschaft, priority 2004, dated 2010)
Where a name gives a salt, the structure may show the parent alone.

How the values were obtained:
[1] = system: BT474 [human breast carcinoma, overexpressing HER2 (ErbB2)]; experiment: In vitro tumor cell proliferation assay (Cell Titer-Glo luminescent cell viability), BT474 cells; type: cell-based; details: BT-474, 72 h, 72 hours of drug exposure, Cell Titer-Glo readout, read-out: IC50, anti-proliferative activity in BT474 cells
Text: (§1) The utility of the compounds of the present invention can be illustrated, for example, by their activity in vitro in the in vitro tumor cell proliferation assay described below. The link between activity in tumor cell proliferation assays in vitro and anti-tumor activity in the clinical setting has been very well established in the art.
(§2) The following assay is one of the methods by which compound activity relating to treatment of the disorders identified herein can be determined.
(§3) The tumor cell proliferation assay used to test the compounds of the present invention involves a readout called Cell Titer-Glow® Luminescent Cell Viability Assay developed by Promega® (Cunningham, B A “A Growing Issue: Cell Proliferation Assays, Modern kits ease quantification of cell growth” The Scientist 2001, 15(13), 26, and Crouch, S P et al., “The use of ATP bioluminescence as a measure of cell proliferation and cytotoxicity” Journal of Immunological Methods 1993, 160, 81-88), that measures inhibition of cell proliferation. Generation of a luminescent signal corresponds to the amount of ATP present, which is directly proportional to the number of metabolically active (proliferating) cells.
(§4) A431 cells [human epidermoid carcinoma, ATCC # […], overexpressing HER1 (EGFR, ErbB1)] and BT474 [human breast carcinoma, ATCC # CRL-1555, overexpressing HER2 (ErbB2)] were plated at a density of 2.5×10^3 cells/well in 96 well black-clear bottom tissue culture plates in RPMI media with 10% Fetal Bovine Serum and incubated at 37° C. Twenty-four hours later, test compounds are added at a final concentration range from as high 100 μm to as low 64 pM depend on the activities of the tested compounds in serial dilutions at a final DMSO concentration of 0.1%. Cells were incubated for 72 hours at 37° C. in complete growth media after addition of the test compound. After 72 hours of drug exposure, the plates were equilibrated to room temperature for approximately 30 min. Then, using a Promega Cell Titer Glo Luminescent® assay kit, lysis buffer containing 100 microliters of the enzyme luciferase and its substrate, luciferin mixture, was added to each well. The plates were mixed for 2 min on orbital shaker to ensure cell lysis and incubated for 10 min at room temperature to stabilize luminescence signal. The samples were read on VICTOR 2 using Luminescence protocol, and analyzed with Analyze5 software to generate IC50 values.

[2] = system: A431 cells [human epidermoid carcinoma, overexpressing HER1 (EGFR, ErbB1)]; experiment: In vitro tumor cell proliferation assay (Cell Titer-Glo luminescent cell viability), A431 cells; type: cell-based; details: A-431, 72 h, 72 hours of drug exposure, Cell Titer-Glo readout, read-out: IC50, anti-proliferative activity in A431 cells
Text: as §1, §2, §3, §4

Compound | IC50 [1] | IC50 [2]
OCC(O)c1ccc2c(c1)sc1ncnc(Nc3ccc(OCc4cccc(F)c4)c(Cl)c3)c12 (racemic) [Example 25, 1-[4-({3-chloro-4-[(3-fluorobenzyl)oxy]phenyl}amino) [1]benzothieno[2,3-d]pyrimidin-7-yl]ethane-1,2-diol] | ≤ 0.5 µM | ≤ 5 µM
OCC(O)c1ccc2c(c1)sc1ncnc(Nc3ccc(OCc4ccccn4)c(Cl)c3)c12 (racemic) [Example 73, 1-(4-{[3-chloro-4-(pyridin-2-ylmethoxy)phenyl]amino}[1]benzothieno[2,3-d]pyrimidin-7-yl)ethane-1,2-diol] | ≤ 0.5 µM | ≤ 5 µM
CCOC(=O)Cc1ccc2c(c1)sc1ncnc(Nc3ccc(OCc4cccc(F)c4)c(Cl)c3)c12 [Example 1, ethyl[4-({3-chloro-4-[(3-fluorobenzyl)oxy]phenyl}amino)[1]benzothieno[2,3-d]pyrimidin-7-yl]acetate] | ≤ 5 µM | ≤ 50 µM
OCCc1ccc2c(c1)sc1ncnc(Nc3ccc(OCc4cccc(F)c4)c(Cl)c3)c12 [Example 2, 2-[4-({3-chloro-4-[(3-fluorobenzyl)oxy]phenyl}amino)[1]benzothieno[2,3-d]pyrimidin-7-yl]ethanol] | ≤ 5 µM | ≤ 5 µM
Fc1cccc(COc2ccc(Nc3ncnc4sc5cc(CCBr)ccc5c34)cc2Cl)c1 [Example 3, 7-(2-bromoethyl)-N-{3-chloro-4-[(3-fluorobenzyl)oxy]phenyl}[1]benzothieno[2,3-d]pyrimidin-4-amine] | ≤ 0.5 µM | ≤ 5 µM
CS(=O)(=O)CCNCCc1ccc2c(c1)sc1ncnc(Nc3ccc(OCc4cccc(F)c4)c(Cl)c3)c12 [Example 4, N-{3-chloro-4-[(3-fluorobenzyl)oxy]phenyl}-7-(2-{[2-(methylsulfonyl)ethyl]amino}ethyl)[1]benzothieno[2,3-d] pyrimidin-4-amine] | ≤ 0.5 µM | ≤ 50 µM
COC[C@H]1CCCN1CCc1ccc2c(c1)sc1ncnc(Nc3ccc(OCc4cccc(F)c4)c(Cl)c3)c12 [Example 5, N-{3-chloro-4-[(3-fluorobenzyl)oxy]phenyl}-7-{2-[2-(methoxymethyl)pyrrolidin-1-yl]ethyl}[1]benzothieno[2,3-d] pyrimidin-4-amine] | ≤ 0.5 µM | ≤ 5 µM
COCCN(CCOC)CCc1ccc2c(c1)sc1ncnc(Nc3ccc(OCc4cccc(F)c4)c(Cl)c3)c12 [Example 6, 7-{2-[bis(2-methoxyethyl)amino]ethyl}-N-{3-chloro-4-[(3-fluorobenzyl)oxy]phenyl}[1] benzothieno[2,3-d]pyrimidin-4-amine] | ≤ 0.5 µM | ≤ 5 µM
Fc1cccc(COc2ccc(Nc3ncnc4sc5cc(CCn6ccnc6)ccc5c34)cc2Cl)c1 [Example 7, [3-chloro-4-(3-fluoro-benzyloxy)-phenyl]-[7-(2-imidazol-1-yl-ethyl)-benzo[4,5]thieno[2,3-d]pyrimidin-4-yl]-amine] | ≤ 5 µM | ≤ 50 µM
OCCN(CCO)CCc1ccc2c(c1)sc1ncnc(Nc3ccc(OCc4cccc(F)c4)c(Cl)c3)c12 [Example 8, 2,2'-({2-[4-({3-chloro-4-[(3-fluorobenzyl)oxy]phenyl}amino)[1]benzothieno[2,3-d]pyrimidin-7-yl]ethyl}imino)diethanol] | ≤ 0.5 µM | ≤ 5 µM
COCCNCCc1ccc2c(c1)sc1ncnc(Nc3ccc(OCc4cccc(F)c4)c(Cl)c3)c12 [Example 9, N-{3-chloro-4-[(3-fluorobenzyl)oxy]phenyl}-7-{2-[(2-methoxyethyl)amino]ethyl}[1] benzothieno[2,3-d]pyrimidin-4-amine] | ≤ 0.5 µM | ≤ 5 µM
Fc1cccc(COc2ccc(Nc3ncnc4sc5cc(CCN6CCOCC6)ccc5c34)cc2Cl)c1 [Example 10, N-{3-chloro-4-[(3-fluorobenzyl)oxy]phenyl}-7-(2-morpholin-4-ylethyl)[1] benzothieno[2,3-d]pyrimidin-4-amine] | ≤ 0.5 µM | ≤ 50 µM
Fc1cccc(COc2ccc(Nc3ncnc4sc5cc(CCN6CCCC6)ccc5c34)cc2Cl)c1 [Example 11, N-{3-chloro-4-[(3-fluorobenzyl)oxy]phenyl}-7-(2-pyrrolidin-1-ylethyl)[1] benzothieno[2,3-d]pyrimidin-4-amine] | ≤ 0.5 µM | ≤ 5 µM
COCCN1CCN(CCc2ccc3c(c2)sc2ncnc(Nc4ccc(OCc5cccc(F)c5)c(Cl)c4)c23)CC1 [Example 12, N-{3-chloro-4-[(3-fluorobenzyl)oxy]phenyl}-7-{2-[4-(2-methoxyethyl)piperazin-1-yl]ethyl}[1]benzothieno [2,3-d]pyrimidin-4-amine] | ≤ 0.5 µM | ≤ 5 µM
Fc1cccc(COc2ccc(Nc3ncnc4sc5cc(Br)ccc5c34)cc2Cl)c1 [Example 13, 7-bromo-N-{3-chloro-4-[(3-fluorobenzyl)oxy]phenyl}[1]benzothieno[2,3-d]pyrimidin-4-amine] | ≤ 5 µM | ≤ 50 µM
C=Cc1ccc2c(c1)sc1ncnc(Nc3ccc(OCc4cccc(F)c4)c(Cl)c3)c12 [Example 14, N-{3-chloro-4-[(3-fluorobenzyl)oxy]phenyl}-7-vinyl[1]benzothieno[2,3-d]pyrimidin-4-amine] | ≤ 0.5 µM | ≤ 50 µM
Fc1cccc(COc2ccc(Nc3ncnc4sc5cc(CCN6CCSCC6)ccc5c34)cc2Cl)c1 [Example 15, N-{3-chloro-4-[(3-fluorobenzyl)oxy]phenyl}-7-(2-thiomorpholin-4-ylethyl)[1] benzothieno[2,3-d]pyrimidin-4-amine] | ≤ 0.5 µM | ≤ 5 µM
Fc1cccc(COc2ccc(Nc3ncnc4sc5cc(CCNCCN6CCOCC6)ccc5c34)cc2Cl)c1 [Example 16, N-{3-chloro-4-[(3-fluorobenzyl)oxy]phenyl}-7-{2-[(2-morpholin-4-ylethyl)amino]ethyl}[1] benzothieno[2,3-d]pyrimidin-4-amine] | ≤ 0.5 µM | ≤ 50 µM
Fc1cccc(COc2ccc(Nc3ncnc4sc5cc(CCN6CCCCC6)ccc5c34)cc2Cl)c1 [Example 17, N-{3-chloro-4-[(3-fluorobenzyl)oxy]phenyl}-7-(2-piperidin-1-ylethyl)[1] benzothieno[2,3-d]pyrimidin-4-amine] | ≤ 0.5 µM | ≤ 5 µM
O=S1(=O)CCN(CCc2ccc3c(c2)sc2ncnc(Nc4ccc(OCc5cccc(F)c5)c(Cl)c4)c23)CC1 [Example 18, N-{3-chloro-4-[(3-fluorobenzyl)oxy]phenyl}-7-[2-(1,1-dioxidothiomorpholin-4-yl)ethyl][1]benzothieno[2,3-d] pyrimidin-4-amine] | ≤ 0.5 µM | ≤ 50 µM
[O-][S+]1CCN(CCc2ccc3c(c2)sc2ncnc(Nc4ccc(OCc5cccc(F)c5)c(Cl)c4)c23)CC1 [Example 19, N-{3-chloro-4-[(3-fluorobenzyl)oxy]phenyl}-7-[2-(1-oxidothiomorpholin-4-yl)ethyl][1] benzothieno[2,3-d]pyrimidin-4-amine] | ≤ 5 µM | ≤ 50 µM
OC[C@@H](O)COc1ccc2c(c1)sc1ncnc(Nc3ccc(OCc4cccc(F)c4)c(Cl)c3)c12 [Example 35, (2R)-3-{[4-({3-chloro-4-[(3-fluorobenzyl)oxy]phenyl}amino)[1]benzothieno[2,3-d]pyrimidin-7-yl]oxy}propane-1,2-diol] | – | ≤ 5 µM
CS(=O)(=O)CCNC(=O)/C=C/c1ccc2c(c1)sc1ncnc(Nc3ccc(OCc4cccc(F)c4)c(Cl)c3)c12 [Example 53, (2E)-3-[4-({3-chloro-4-[(3-fluorobenzyl)oxy]phenyl}amino) [1]benzothieno[2,3-d]pyrimidin-7-yl]-N-[2-(methylsulfonyl)ethyl]acrylamide] | – | ≤ 50 µM
O=C(/C=C/c1ccc2c(c1)sc1ncnc(Nc3ccc(OCc4cccc(F)c4)c(Cl)c3)c12)N1CCOCC1 [Example 55, N-{3-chloro-4-[(3-fluorobenzyl)oxy]phenyl}-7-[(1E)-3-morpholin-4-yl-3-oxoprop-1-en-1-yl][1]benzothieno[2,3-d] pyrimidin-4-amine trifluoroacetate] | – | ≤ 5 µM
CN1CCN(CCc2ccc3c(c2)sc2ncnc(Nc4ccc(OCc5ccccn5)c(Cl)c4)c23)CC1 [Example 91] | ≤ 0.5 µM | –
OC[C@@H](O)COc1ccc2c(c1)sc1ncnc(Nc3ccc(OCc4cccc(F)c4)c(Cl)c3)c12 [Example 147, ((2R)-3-{[4-({3-chloro-4-[(3-fluorobenzyl)oxy]phenyl}amino)[1]benzothieno[2,3-d]pyrimidin-7-yl]oxy}propane-1,2-diol hydrochloride] | ≤ 0.5 µM | –
